Assay results: PubChem BioAssay AID330 (DTP/NCI, 2004)
Where “and” joins values, the source holds several entries; their conditions need not be identical. Equal entries are not always repeated. Inconclusive results and toxic doses are left out.

Test system: P388 leukemia ip, CD2F1 mice, survival T/C
Assay: NCI In Vivo Anticancer Drug Screen. Data for tumor model P388 Leukemia (intraperitoneal) in CD2F1 (CDF1) mice
Conditions: endpoint: median survival time, higher = longer survival
In short: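 Mice carrying the transplanted tumor received test compound or vehicle. Survival was recorded in each group, and the value is the treated-group measurement divided by that of the vehicle-treated control group.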

[1] = dose: 50.0 mg/kg/injection, schedule: Q01DX005 (ip), vehicle: saline with Tween-80
[2] = dose: 100.0 mg/kg/injection, schedule: Q01DX005 (ip), vehicle: saline with Tween-80
[3] = dose: 200.0 mg/kg/injection, schedule: Q01DX005 (ip), vehicle: saline with Tween-80
[4] = dose: 25.0 mg/kg/injection, schedule: Q01DX009 (ip), vehicle: Klucel (hydroxypropylcellulose) (HPC)
[5] = dose: 50.0 mg/kg/injection, schedule: Q01DX009 (ip), vehicle: Klucel (hydroxypropylcellulose) (HPC)
[6] = dose: 50.0 mg/kg/injection, schedule: Q01DX009 (ip), vehicle: saline with Tween-80
[7] = dose: 100.0 mg/kg/injection, schedule: Q01DX009 (ip), vehicle: Klucel (hydroxypropylcellulose) (HPC)
[8] = dose: 100.0 mg/kg/injection, schedule: Q01DX009 (ip), vehicle: saline with Tween-80
[9] = dose: 200.0 mg/kg/injection, schedule: Q01DX009 (ip), vehicle: Klucel (hydroxypropylcellulose) (HPC)
[10] = dose: 25.0 mg/kg/injection, schedule: Q01DX009 (ip), vehicle: saline with Tween-80
[11] = dose: 200.0 mg/kg/injection, schedule: Q01DX009 (ip), vehicle: saline with Tween-80

**Q.** What does the source list for Cc1cc(CSC(=N)N)c(C)cc1CSC(=N)N?
**A.** T/C (dose: 5.0 mg/kg/injection, schedule: Q01DX009 (ip), vehicle: saline with Tween-80): 100 % of control; T/C (dose: 10.0 mg/kg/injection, schedule: Q01DX009 (ip), vehicle: saline with Tween-80): 109 % of control; T/C (dose: 10.0 mg/kg/injection, schedule: Q04DX003 (ip), vehicle: saline with Tween-80): 108 % of control; T/C (dose: 20.0 mg/kg/injection, schedule: Q01DX009 (ip), vehicle: saline with Tween-80): 109 % of control; T/C (dose: 20.0 mg/kg/injection, schedule: Q04DX003 (ip), vehicle: saline with Tween-80): 104 % of control; T/C (dose: 40.0 mg/kg/injection, schedule: Q04DX003 (ip), vehicle: saline with Tween-80): 116 % of control

**Q.** CCOC(=O)Nc1cc(OC)cc2ccc(C)nc12 was tested. Which T/C (dose: 12.5 mg/kg/injection, schedule: Q01DX009 (ip), vehicle: other) did it give?
**A.** 88 % of control

**Q.** And the T/C (dose: 50.0 mg/kg/injection, schedule: Q01DX009 (ip), vehicle: other)?
**A.** 98 % of control

**Q.** What about the T/C (dose: 100.0 mg/kg/injection, schedule: Q01DX009 (ip), vehicle: other) of the same molecule?
**A.** 99 % of control

**Q.** And the T/C (dose: 200.0 mg/kg/injection, schedule: Q01DX009 (ip), vehicle: other)?
**A.** 98 % of control

**Q.** Which T/C (dose: 600.0 mg/kg/injection, schedule: Q04DX003 (ip), vehicle: saline) does the source give for C1OC1CO[C@H]1CO[C@H]2[C@@H]1OC[C@@H]2OCC1CO1 (stereo partly drawn) here?
**A.** 172 % of control

**Q.** How did the T/C [1] turn out when CC(=O)NCCc1ccc(OC(C)=O)c(OC(C)=O)c1 was run?
**A.** 99 % of control

**Q.** What about the T/C [2] of the same molecule?
**A.** 103 % of control

**Q.** And the T/C [3]?
**A.** 107 % of control

**Q.** For Cc1csc(NC(=O)Nc2ccc(F)cc2[N+](=O)[O-])n1, which T/C [4] is on record?
**A.** 106 % of control

**Q.** What about the T/C [5] of the same molecule?
**A.** 97 % of control

**Q.** What about the T/C [6] of the same molecule?
**A.** 105 % of control

**Q.** What about the T/C [7] of the same molecule?
**A.** 100 % of control

**Q.** And the T/C [8]?
**A.** 94 % of control

**Q.** And the T/C [9]?
**A.** 95 % of control

**Q.** Which T/C (dose: 12.5 mg/kg/injection, schedule: Q01DX009 (ip), vehicle: Klucel (hydroxypropylcellulose) (HPC)) does the source give for COc1ccccc1NC(=O)Cc1nc(=O)[nH]c(=O)[nH]1 here?
**A.** 100 % of control

**Q.** And the T/C [4]?
**A.** 90 % of control

**Q.** And the T/C [5]?
**A.** 101 % of control

**Q.** And the T/C [7]?
**A.** 102 % of control

**Q.** What about the T/C [9] of the same molecule?
**A.** 96 % of control

**Q.** O=S1(=O)CCC(N(/N=C/c2ccco2)c2ccccc2)C1 (stereo not drawn) was tested. Which T/C [1] did it give?
**A.** 95 % of control

**Q.** What about the T/C [2] of the same molecule?
**A.** 101 % of control

**Q.** What about the T/C [3] of the same molecule?
**A.** 101 % of control

**Q.** COc1ccc(C2=C(Cl)C(=O)N(c3ccccc3OC)C(=O)C2(Cl)Cl)cc1 was tested. Which T/C (dose: 100.0 mg/kg/injection, schedule: Q04DX003 (ip), vehicle: Klucel (hydroxypropylcellulose) (HPC)) did it give?
**A.** 107 % of control

**Q.** And the T/C (dose: 200.0 mg/kg/injection, schedule: Q04DX003 (ip), vehicle: Klucel (hydroxypropylcellulose) (HPC))?
**A.** 103 % of control

**Q.** What about the T/C (dose: 400.0 mg/kg/injection, schedule: Q04DX003 (ip), vehicle: Klucel (hydroxypropylcellulose) (HPC)) of the same molecule?
**A.** 98 % of control

**Q.** Cc1ccc(NC(=O)CCCC(=O)C(C#N)c2nc3ccccc3s2)cc1C (stereo not drawn) was tested. Which T/C (dose: 60.0 mg/kg/injection, schedule: Q01DX005 (ip), vehicle: saline with Tween-80) did it give?
**A.** 100 % of control

**Q.** And the T/C (dose: 120.0 mg/kg/injection, schedule: Q01DX005 (ip), vehicle: saline with Tween-80)?
**A.** 98 % of control

**Q.** What about the T/C (dose: 240.0 mg/kg/injection, schedule: Q01DX005 (ip), vehicle: saline with Tween-80) of the same molecule?
**A.** 98 % of control

**Q.** Which results are given for CN(C)CCO[Si](C)(c1ccccc1)c1ccc(F)cc1 (stereo not drawn)?
**A.** T/C (dose: 12.5 mg/kg/injection, schedule: Q01DX009 (ip), vehicle: saline with Tween-80): 100 % of control; T/C [10]: 101 % of control; T/C [6]: 98 % of control and 101 % of control; T/C [8]: 99 % of control; T/C [11]: 114 % of control

**Q.** Which T/C (dose: 50.0 mg/kg/injection, schedule: Q01DX009 (ip), vehicle: saline) does the source give for COC(=O)C[n+]1ccc2ccccc2c1 here?
**A.** 99 % of control

**Q.** And the T/C (dose: 100.0 mg/kg/injection, schedule: Q01DX009 (ip), vehicle: saline)?
**A.** 99 % of control

**Q.** And the T/C (dose: 200.0 mg/kg/injection, schedule: Q01DX009 (ip), vehicle: saline)?
**A.** 95 % of control

**Q.** What does the source list for COC(OC)/C(C)=N/NC1=Nc2ccc(Cl)cc2C(c2ccccc2Cl)=NC1?
**A.** T/C [6]: 98 % of control; T/C [8]: 95 % of control; T/C [11]: 101 % of control

**Q.** With O=C(Nc1ccccc1Cl)Oc1ccc(-c2ccccc2)cc1Br as the molecule, how does the T/C [10] read?
**A.** 111 % of control

**Q.** And the T/C [6]?
**A.** 121 % of control

**Q.** And the T/C [11]?
**A.** 104 % of control and 95 % of control
